Assay results from PubChem BioAssay (NCI).
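Protocol summary: plate cells (96-well), add compound at 5 concentrations, incubate 48 h, interpolate endpoints linearly. Here, GI50 denotes the concentration required for 50% inhibition of growth. TGI denotes the concentration required for complete inhibition of growth.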

What was measured:
Assay in all cases: inhibition of tumour cell growth, NCI panel, 48 h
HCC-2998 colon = test system: HCC-2998 colon
UACC-257 melanoma = test system: UACC-257 melanoma
K-562 leukemia = test system: K-562 leukemia
HCT-116 colon = test system: HCT-116 colon
OVCAR-8 ovarian = test system: OVCAR-8 ovarian
EKVX NSCLC = test system: EKVX NSCLC
T-47D breast = test system: T-47D breast
OVCAR-4 ovarian = test system: OVCAR-4 ovarian
MDA-MB-231 breast = test system: MDA-MB-231 breast
UACC-62 melanoma = test system: UACC-62 melanoma
SF-268 CNS = test system: SF-268 CNS
HL-60(TB) leukemia = test system: HL-60(TB) leukemia
BT-549 breast = test system: BT-549 breast
DU-145 prostate = test system: DU-145 prostate
MOLT-4 leukemia = test system: MOLT-4 leukemia
HOP-62 NSCLC = test system: HOP-62 NSCLC
SK-MEL-5 melanoma = test system: SK-MEL-5 melanoma
HT29 colon = test system: HT29 colon
786-0 renal = test system: 786-0 renal
HCT-15 colon = test system: HCT-15 colon
SW-620 colon = test system: SW-620 colon
OVCAR-3 ovarian = test system: OVCAR-3 ovarian
NCI-H226 lung = test system: NCI-H226 lung
SK-MEL-28 melanoma = test system: SK-MEL-28 melanoma
NCI-H460 lung = test system: NCI-H460 lung
SR leukemia = test system: SR leukemia
SNB-75 CNS = test system: SNB-75 CNS
A498 renal = test system: A498 renal
KM12 colon = test system: KM12 colon
ACHN renal = test system: ACHN renal
LOX IMVI melanoma = test system: LOX IMVI melanoma
A549 NSCLC = test system: A549 NSCLC
CCRF-CEM leukemia = test system: CCRF-CEM leukemia
MALME-3M melanoma = test system: MALME-3M melanoma
OVCAR-5 ovarian = test system: OVCAR-5 ovarian
MDA-MB-435 = test system: MDA-MB-435
UO-31 renal = test system: UO-31 renal
HS 578T breast = test system: HS 578T breast
NCI-H522 lung = test system: NCI-H522 lung
M14 melanoma = test system: M14 melanoma
U251 CNS = test system: U251 CNS
HOP-92 NSCLC = test system: HOP-92 NSCLC
MCF7 breast = test system: MCF7 breast
SK-OV-3 ovarian = test system: SK-OV-3 ovarian
SNB-19 CNS = test system: SNB-19 CNS
SF-539 CNS = test system: SF-539 CNS
COLO 205 colon = test system: COLO 205 colon
NCI-H23 lung = test system: NCI-H23 lung
SN12C renal = test system: SN12C renal
NCI/ADR-RES ovarian = test system: NCI/ADR-RES ovarian
RPMI-8226 leukemia = test system: RPMI-8226 leukemia
TK-10 renal = test system: TK-10 renal
CAKI-1 renal = test system: CAKI-1 renal

## Cc1cnc(NC(=O)C(Cc2ccccc2)NC(=O)c2ccccc2)s1 (stereo unspecified)
HCC-2998 colon
  GI50: 1830 nM
  TGI: 5 µM
UACC-257 melanoma
  GI50: 1140 nM
  TGI: 3.16 µM
K-562 leukemia
  GI50: 37.2 µM
  TGI: > 100 µM
HCT-116 colon
  GI50: 2960 nM
  TGI: 11.9 µM
OVCAR-8 ovarian
  GI50: 2380 nM
  TGI: 9.16 µM
EKVX NSCLC
  GI50: 19.5 µM
  TGI: 47.6 µM
T-47D breast
  GI50: 23.1 µM
  TGI: 82.6 µM
OVCAR-4 ovarian
  GI50: 16.3 µM
  TGI: > 100 µM
MDA-MB-231 breast
  GI50: 6.42 µM
  TGI: 27.1 µM
UACC-62 melanoma
  GI50: 1450 nM
  TGI: 3.7 µM
SF-268 CNS
  GI50: 23.2 µM
  TGI: 54.7 µM
HL-60(TB) leukemia
  GI50: 21.2 µM
  TGI: 51.5 µM
BT-549 breast
  GI50: 29.1 µM
  TGI: > 100 µM
DU-145 prostate
  GI50: 21.4 µM
  TGI: 47 µM
MOLT-4 leukemia
  GI50: 24.1 µM
  TGI: 95.4 µM
HOP-62 NSCLC
  GI50: 10 µM
  TGI: 28 µM
SK-MEL-5 melanoma
  GI50: 1690 nM
  TGI: 3.85 µM
HT29 colon
  GI50: 26 µM
  TGI: > 100 µM
786-0 renal
  GI50: 15.1 µM
  TGI: 76.2 µM
HCT-15 colon
  GI50: 2630 nM
  TGI: 8.9 µM
SW-620 colon
  GI50: 14 µM
  TGI: 30.6 µM
OVCAR-3 ovarian
  GI50: 11.3 µM
  TGI: 25.8 µM
NCI-H226 lung
  GI50: 2040 nM
  TGI: 7.05 µM
SK-MEL-28 melanoma
  GI50: 19.8 µM
  TGI: 49.9 µM
NCI-H460 lung
  GI50: 3.54 µM
  TGI: 13.8 µM
SR leukemia
  GI50: 2780 nM
  TGI: 26.6 µM
SNB-75 CNS
  GI50: 6.53 µM
  TGI: 27.7 µM
A498 renal
  GI50: 31.1 µM
  TGI: > 100 µM
KM12 colon
  GI50: 3.82 µM
  TGI: 14.7 µM
ACHN renal
  GI50: 3.49 µM
  TGI: 16.9 µM
LOX IMVI melanoma
  GI50: 6.25 µM
  TGI: 19.3 µM
A549 NSCLC
  GI50: 3.32 µM
  TGI: 15.8 µM
CCRF-CEM leukemia
  GI50: 34.7 µM
  TGI: > 100 µM
MALME-3M melanoma
  GI50: 24.2 µM
  TGI: > 100 µM
OVCAR-5 ovarian
  GI50: 25.3 µM
  TGI: 63.7 µM
MDA-MB-435
  GI50: 3.02 µM
  TGI: 15.6 µM
UO-31 renal
  GI50: 3.98 µM
  TGI: 18.9 µM
HS 578T breast
  GI50: 6.69 µM
  TGI: 35.3 µM
NCI-H522 lung
  GI50: 1530 nM
  TGI: 21.8 µM
M14 melanoma
  GI50: 1750 nM
  TGI: 3.95 µM
U251 CNS
  GI50: 5.25 µM
  TGI: 19.3 µM
HOP-92 NSCLC
  GI50: 29.9 µM
  TGI: > 100 µM
MCF7 breast
  GI50: 1550 nM
  TGI: 5.12 µM
SK-OV-3 ovarian
  GI50: 22.9 µM
  TGI: 71.6 µM
SNB-19 CNS
  GI50: 19 µM
  TGI: 48.6 µM
SF-539 CNS
  GI50: 14.2 µM
  TGI: 31.1 µM
COLO 205 colon
  GI50: 13.5 µM
  TGI: 29.5 µM
NCI-H23 lung
  GI50: 3.83 µM
  TGI: 23.8 µM
SN12C renal
  GI50: 3.05 µM
  TGI: 17.5 µM
NCI/ADR-RES ovarian
  GI50: 4.49 µM
  TGI: 69.2 µM
RPMI-8226 leukemia
  GI50: 2700 nM
  TGI: 9.04 µM
TK-10 renal
  GI50: 10.2 µM
  TGI: 30.7 µM
CAKI-1 renal
  GI50: 33 µM
  TGI: > 100 µM
